Several values for one entry are separate records, joined by “and”; a condition that tells them apart may be missing. Equal entries are not always repeated. Toxic doses and inconclusive results are not listed.
System: P388 leukemia ip, CD2F1 mice, survival T/C
Assay: NCI In Vivo Anticancer Drug Screen. Data for tumor model P388 Leukemia (intraperitoneal) in CD2F1 (CDF1) mice
Conditions: endpoint: median survival time, higher = longer survival
How it was run: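 Mice carrying the transplanted tumor received test compound or vehicle. Survival was recorded in each group, and the value is the treated-group measurement divided by that of the vehicle-treated control group.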

[1] = dose: 100.0 mg/kg/injection, schedule: Q04DX003 (ip), vehicle: saline
[2] = dose: 50.0 mg/kg/injection, schedule: Q01DX009 (ip), vehicle: saline
[3] = dose: 100.0 mg/kg/injection, schedule: Q01DX009 (ip), vehicle: saline
[4] = dose: 200.0 mg/kg/injection, schedule: Q01DX009 (ip), vehicle: saline
[5] = dose: 60.0 mg/kg/injection, schedule: Q01DX005 (ip), vehicle: saline with Tween-80
[6] = dose: 120.0 mg/kg/injection, schedule: Q01DX005 (ip), vehicle: saline with Tween-80
[7] = dose: 240.0 mg/kg/injection, schedule: Q01DX005 (ip), vehicle: saline with Tween-80
[8] = dose: 25.0 mg/kg/injection, schedule: Q01DX005 (ip), vehicle: Klucel (hydroxypropylcellulose) (HPC)
[9] = dose: 50.0 mg/kg/injection, schedule: Q01DX005 (ip), vehicle: Klucel (hydroxypropylcellulose) (HPC)
[10] = dose: 50.0 mg/kg/injection, schedule: Q01DX009 (ip), vehicle: saline with Tween-80

Cc1c2cc[n+](C)cc2c(C)c2c1[nH]c1ccc(O)cc12
T/C (dose: 0.25 mg/kg/injection, schedule: Q04DX003 (ip), vehicle: water): 115 % of control
T/C (dose: 0.25 mg/kg/injection, schedule: Q04DX003 (iv), vehicle: water): 94 % of control
T/C (dose: 0.5 mg/kg/injection, schedule: Q04DX003 (iv), vehicle: water): 93 % of control
T/C (dose: 0.78 mg/kg/injection, schedule: Q04DX003 (ip), vehicle: saline): 152 % of control
T/C (dose: 1.0 mg/kg/injection, schedule: Q04DX003 (ip), vehicle: water): 151 % of control
T/C (dose: 1.0 mg/kg/injection, schedule: Q04DX003 (iv), vehicle: water): 100 % of control
T/C (dose: 1.56 mg/kg/injection, schedule: Q04DX003 (ip), vehicle: saline): 164 % of control
T/C (dose: 2.0 mg/kg/injection, schedule: Q04DX003 (ip), vehicle: water): 152 % of control and 161 % of control
T/C (dose: 2.0 mg/kg/injection, schedule: Q04DX003 (iv), vehicle: water): 111 % of control
T/C (dose: 3.12 mg/kg/injection, schedule: Q04DX003 (ip), vehicle: saline): 172 % of control
T/C (dose: 3.6 mg/kg/injection, schedule: Q04DX002 (ip), vehicle: saline): 176 % of control
T/C (dose: 4.0 mg/kg/injection, schedule: Q04DX003 (iv), vehicle: water): 99 % of control
T/C (dose: 4.5 mg/kg/injection, schedule: Q04DX002 (ip), vehicle: saline): 151 % of control
T/C (dose: 6.0 mg/kg/injection, schedule: Q04DX002 (ip), vehicle: saline): 188 % of control
T/C (dose: 6.25 mg/kg/injection, schedule: Q04DX003 (ip), vehicle: saline): 150 % of control
T/C (dose: 7.5 mg/kg/injection, schedule: Q04DX002 (ip), vehicle: saline): 94 % of control
T/C (dose: 12.5 mg/kg/injection, schedule: Q04DX003 (ip), vehicle: saline): 170 % of control
T/C (dose: 50.0 mg/kg/injection, schedule: Q04DX003 (ip), vehicle: saline): 93 % of control
T/C [1]: 94 % of control

NC(=O)c1cn(CCO)nc1[N+](=O)[O-]
T/C [2]: 100 % of control
T/C [3]: 100 % of control
T/C [4]: 119 % of control

COC1C(c2cc3ccccc3oc2=O)OC2OC(C)(C)OC21 (stereo not given)
T/C (dose: 5.0 mg/kg/injection, schedule: Q01DX001 (ip), vehicle: Klucel (hydroxypropylcellulose) (HPC)): 97 % of control
T/C (dose: 10.0 mg/kg/injection, schedule: Q01DX001 (ip), vehicle: Klucel (hydroxypropylcellulose) (HPC)): 101 % of control
T/C (dose: 20.0 mg/kg/injection, schedule: Q01DX001 (ip), vehicle: Klucel (hydroxypropylcellulose) (HPC)): 100 % of control

O=C1OC(C2OC(=O)C(=O)C2C(=O)c2ccc(Cl)c(Cl)c2)C(C(=O)c2ccc(Cl)c(Cl)c2)C1=O (stereo not given)
T/C (dose: 60.0 mg/kg/injection, schedule: Q01DX005 (ip), vehicle: saline): 100 % of control
T/C (dose: 120.0 mg/kg/injection, schedule: Q01DX005 (ip), vehicle: saline): 96 % of control
T/C (dose: 240.0 mg/kg/injection, schedule: Q01DX005 (ip), vehicle: saline): 90 % of control

COC(=O)C(Cc1c[nH]c2ccccc12)NC(=O)c1ccccc1NC(=O)OCc1ccccc1 (stereo not given)
T/C (dose: 17.5 mg/kg/injection, schedule: Q01DX005 (ip), vehicle: Klucel (hydroxypropylcellulose) (HPC)): 103 % of control
T/C (dose: 35.0 mg/kg/injection, schedule: Q01DX005 (ip), vehicle: Klucel (hydroxypropylcellulose) (HPC)): 104 % of control
T/C (dose: 70.0 mg/kg/injection, schedule: Q01DX005 (ip), vehicle: Klucel (hydroxypropylcellulose) (HPC)): 97 % of control

COC(=O)C1(CC(=O)c2ccc(Cl)c(Cl)c2)NC(=S)NC(=O)C1C#N (stereo not given)
T/C [5]: 106 % of control
T/C [6]: 97 % of control
T/C [7]: 96 % of control

c1ccc(-c2nc(N3CCN(c4ccco4)CC3)c3c4c(sc3n2)CCC4)cc1
T/C (dose: 12.5 mg/kg/injection, schedule: Q01DX005 (ip), vehicle: Klucel (hydroxypropylcellulose) (HPC)): 97 % of control
T/C [8]: 90 % of control
T/C [9]: 90 % of control and 91 % of control

C[Si](C)(C)O[C@@H]1CCCC1N (stereo not given in full)
T/C [5]: 106 % of control
T/C [6]: 97 % of control
T/C [7]: 105 % of control

C=C(C)C(C(=O)OCC)C(=O)OCC
T/C [10]: 101 % of control
T/C (dose: 100.0 mg/kg/injection, schedule: Q01DX009 (ip), vehicle: saline with Tween-80): 107 % of control
T/C (dose: 200.0 mg/kg/injection, schedule: Q01DX009 (ip), vehicle: saline with Tween-80): 110 % of control

COC(=O)C1=NC(=N)N=C(C(=O)OC)C12C(=O)Cc1ccccc12 (stereo not given)
T/C [5]: 103 % of control
T/C [6]: 100 % of control

c1cc2ccc3ccc[n+]4c3c2[n+](c1)CC4
T/C [2]: 103 % of control

NC(CCC(=O)NCCCC(=O)O)C(=O)O (stereo not given)
T/C (dose: 100.0 mg/kg/injection, schedule: Q04DX002 (ip), vehicle: saline): 105 % of control
T/C (dose: 200.0 mg/kg/injection, schedule: Q04DX002 (ip), vehicle: saline): 113 % of control
T/C (dose: 400.0 mg/kg/injection, schedule: Q04DX002 (ip), vehicle: saline): 108 % of control

COc1ccc(CSC(=S)Nc2cccc(S(F)(F)(F)(F)F)c2)cc1
T/C (dose: 12.5 mg/kg/injection, schedule: Q01DX009 (ip), vehicle: saline with Tween-80): 97 % of control
T/C (dose: 12.5 mg/kg/injection, schedule: Q01DX009 (ip), vehicle: saline): 104 % of control
T/C (dose: 25.0 mg/kg/injection, schedule: Q01DX009 (ip), vehicle: saline with Tween-80): 100 % of control
T/C (dose: 25.0 mg/kg/injection, schedule: Q01DX009 (ip), vehicle: saline): 98 % of control
T/C [10]: 100 % of control
T/C [2]: 100 % of control and 119 % of control
T/C [3]: 116 % of control
T/C [4]: 118 % of control

CC(C)C(=O)N1CCCCCN1C(=O)C(C)C
T/C (dose: 100.0 mg/kg/injection, schedule: Q01DX001 (ip), vehicle: suspension in saline): 100 % of control
T/C (dose: 200.0 mg/kg/injection, schedule: Q01DX001 (ip), vehicle: suspension in saline): 95 % of control
T/C (dose: 400.0 mg/kg/injection, schedule: Q01DX001 (ip), vehicle: suspension in saline): 94 % of control

Cc1nc([Se]c2nc(C)n3ccncc23)c2cnccn12
T/C (dose: 37.5 mg/kg/injection, schedule: Q01DX001 (ip), vehicle: saline with Tween-80): 95 % of control
T/C (dose: 75.0 mg/kg/injection, schedule: Q01DX001 (ip), vehicle: saline with Tween-80): 100 % of control
T/C (dose: 150.0 mg/kg/injection, schedule: Q01DX001 (ip), vehicle: saline with Tween-80): 100 % of control

COC(=O)C1=CCOc2c1c(C(=O)OC)nn2C
T/C (dose: 50.0 mg/kg/injection, schedule: Q01DX005 (ip), vehicle: saline with Tween-80): 97 % of control
T/C (dose: 100.0 mg/kg/injection, schedule: Q01DX005 (ip), vehicle: saline with Tween-80): 98 % of control
T/C (dose: 200.0 mg/kg/injection, schedule: Q01DX005 (ip), vehicle: saline with Tween-80): 96 % of control

CS(C)(=O)=Nc1ccc(I)cc1
T/C (dose: 50.0 mg/kg/injection, schedule: Q04DX002 (ip), vehicle: Klucel (hydroxypropylcellulose) (HPC)): 105 % of control
T/C (dose: 100.0 mg/kg/injection, schedule: Q04DX002 (ip), vehicle: Klucel (hydroxypropylcellulose) (HPC)): 102 % of control and 104 % of control and 105 % of control
T/C [1]: 98 % of control
T/C (dose: 200.0 mg/kg/injection, schedule: Q04DX002 (ip), vehicle: Klucel (hydroxypropylcellulose) (HPC)): 101 % of control and 113 % of control and 119 % of control
T/C (dose: 200.0 mg/kg/injection, schedule: Q04DX003 (ip), vehicle: saline): 100 % of control
T/C (dose: 400.0 mg/kg/injection, schedule: Q04DX002 (ip), vehicle: Klucel (hydroxypropylcellulose) (HPC)): 101 % of control and 105 % of control and 120 % of control
T/C (dose: 400.0 mg/kg/injection, schedule: Q04DX003 (ip), vehicle: saline): 94 % of control

CCOC(=O)c1ccc2c(c1)nc(-c1ccccn1)n2CCc1ccncc1
T/C [8]: 103 % of control
T/C [9]: 102 % of control
T/C (dose: 100.0 mg/kg/injection, schedule: Q01DX005 (ip), vehicle: Klucel (hydroxypropylcellulose) (HPC)): 102 % of control
T/C (dose: 200.0 mg/kg/injection, schedule: Q01DX005 (ip), vehicle: Klucel (hydroxypropylcellulose) (HPC)): 94 % of control

O=C(O)c1ccc(OCCOc2ccccc2)cc1
T/C (dose: 50.0 mg/kg/injection, schedule: Q01DX001 (ip), vehicle: saline with Tween-80): 100 % of control
T/C (dose: 100.0 mg/kg/injection, schedule: Q01DX001 (ip), vehicle: saline with Tween-80): 100 % of control
T/C (dose: 200.0 mg/kg/injection, schedule: Q01DX001 (ip), vehicle: saline with Tween-80): 90 % of control

— PubChem BioAssay AID330 (DTP/NCI, 2004)
